Several values for one entry are separate records, joined by “and”; a condition that tells them apart may be missing. Equal values may be shown once.
Molecular target: Protein farnesyltransferase subunit beta/geranylgeranyltransferase type-1 subunit alpha (Homo sapiens, UniProt P49354+P49356)
Experiment: FTase Scintillation Proximity Assay
Details: pH 7.5; 22 °C
Protocol: Compounds were tested as inhibitors of FTase in vitro using purified human enzyme to catalyze the reaction between [3H] FPP and a biotinylated peptide substrate. Reaction was terminated by addition of streptavidin scintillation proximity assay beads (Amersham), and the mixtures were subsequently analyzed by scintillation counting.

Cn1cncc1[C@@](N)(c1ccc(Cl)cc1)c1ccc2c(c1)c(-c1cccc(Cl)c1)cc(=O)n2C (racemic) [Racemic mixture]
IC50: 7.9 nM and 0.86 nM

From BindingDB's records for PubMed 11196150 (Janssen Research Foundation, 2001)
